Patent publication US5670506A, “Halogen, isothiocyanate or azide substituted xanthines” (Cell Therapeutics, Inc., priority 1993, dated 1997)
pIC50: −log10 of the molar value.

Columns and labels:
[1] = test system: PBMC (peripheral blood mononuclear cells); assay: two-way mixed lymphocyte reaction (MLR), immune suppression; format: cell-based; conditions: Homo sapiens, 144 h, allogeneic stimulation of PBMC, 6 days
Excerpt: Various in vitro assays can be used to measure effects of the inventive compounds to module immune activity and have antitumor activity using a variety of cellular types. For example, a mixed lymphocyte reaction (MLR) provides a valuable screening tool to determine biological activity of each inventive compound. In the MLR, PBMCs (peripheral blood mononuclear cells) are obtained by drawing whole blood from healthy volunteers in a heparinized container and diluted with an equal volume of hanks balanced salt solution (HBSS). This mixture is layered on a sucrose density gradient, such as a Ficoll-Hypaque® gradient (specific gravity 1.08), and centrifuged at 1000× g for 25 minutes at room temperature or cooler. PBMC are obtained from a band at a plasma-Ficoll interface, separated and washed at least twice in a saline solution, such as HBSS. Contaminating red cells are lysed, such as by ACK lysis for 10 rain at 37° C., and the PBMCs are washed twice in HBSS. The pellet of purified PBMCs is resuspended in complete medium, such as RPMI 1640 plus 20% human inactivated serum. Proliferative response of PBMC to allogeneic stimulation is determined in a two-way MLR performed in a 96-well microtiter plate. […] At the conclusion of the incubation tritiated thymidine is added (for example, 1 μCi/well of 40 to 60 Ci/mmole) and proliferation determined by liquid scintillation counting. […]

[2] = test system: CMV promoter activity in transformed (adenovirus) cells; assay: CMV promoter assay (gene transcription and translation, cytotoxic activity); format: cell-based; conditions: read-out: IC50 (μM), CMV promoter assay
Excerpt: This example illustrates data regarding proliferative activity of various inventive compounds for inducting CMV promoter activity. The CMV promoter assay measures gene transcription and translation activity wherein any active compounds will nave cytotoxic activity to inhibit cellular protein synthesis machinery in transformed (adenovirus) cells.

[3] = test system: murine splenocytes; assay: inhibition of murine splenocyte proliferation stimulated by anti-mu and IL-4; format: cell-based; conditions: FIG. 5; anti-mu (10 μg/ml) and IL-4 (12.5 ng/ml)
Procedure: Drug was added to the cells at the doses indicated two hours prior to activation with anti-mu and IL-4. This in vitro assay is a model for immune suppression and treatment or prevention of autoimmune diseases. […] Background counts were less than 200 cpm.
There are a series of in vitro assays that can be used to measure immunosuppressive activity of a particular compound. These assays are a predictive model for treatment or prevention of autoimmune diseases, such as diabetes, lupus, arthritis, and the like. A first assay measures immunosuppressive activity of a drug at the B cell level. Spleens from adult mice contain immature B cells that express surface IgM. Cross-linking the surface IgM with an anti-mu antibody results in B cell proliferation. Additionally, this activation results in an increased expression of interleukin-4 receptors(IL-4R) on the surface of such cells. IL-4 acts as a growth factor for B cells and will increase the amount of proliferation induced by anti-mu. In the first assay, a mixture of anti-mu and murine IL-4 is added to murine splenocytes to cause their proliferation. Mice spleens are obtained from adult mice and a single cell suspension is prepared in RPMI 1640 medium supplemented with 10% FCS. […] Proliferation is determined on the third day with a pulse of tritiated thymidine. […]

[4] = test system: murine thymocytes; assay: inhibition of murine thymocyte proliferation stimulated by ConA and IL-1α; format: cell-based, murine (Balb/C mice); conditions: FIG. 4, 4 days
Procedure: The drugs (inventive compounds) were added to the cells at the doses indicated two hours prior to activation with ConA and IL-1α. […] Background counts were less than 200 cpm. This in vitro assay is a model for immune suppression and treatment or prevention of autoimmune diseases.
A third assay measures an ability of an inventive compound to inhibit IL-2-induced proliferation of murine thymocytes. Thymus glands are obtained from 4-6 week old mice and plated as a single cell suspension into flat bottomed wells in RPMI 1640 medium supplemented with 10% fetal calf serum. The inventive compounds are added to appropriate wells and the cells are incubated for 1-2 hrs. Concanavilin A (ConA, 0.25 μg/ml) and IL-1 (20 ng/ml) are added and the plates are incubated for 4 days. Cell proliferation is determined as above. There are also variations for this assay that follow the same basic stimulation and measure inhibition of proliferation format. […]
This example illustrates the effect of CT1514, CT1525, CT1527, CT1529, CT1577, CT1583, CT1589, CT1595, CT2519, CT1205, CT1801 and CT1908 on inhibition of murine thymocyte proliferation stimulated by Concanavalin A (ConA) and interleukin-2 (IL-2) (FIG. 4). […] The cells were harvested and incorporated tritiated thymidine was determined in a liquid scintillation counter. […]

In the case of `Cn1cnc2c1c(=O)n(CCCCC(=O)CCl)c(=O)n2C` [CT1595, 1-(6-chloro-5-oxohexyl)-3,7-dimethylxanthine], the pIC50 [1] was over 5.00, the IC50 [2] was 20 µM and the “inhibition of splenocyte proliferation” value [3] was “most potent inhibitors of splenocyte proliferation in a dose-response manner”. For the same compound, the “inhibition of thymocyte proliferation” value [4] was “most potent drugs”.
